Assay results from patent US6770673B1, “Therapeutic uses of arglabin in combination with other chemotherapy agents” (priority 1997, dated 2004).
Where two headings read alike, the source gives them in different places. Marks after values point to notes of the source that are not given here.

Assays:
[1] = test system: M-1 Sarcoma; assay: Inhibition of tumor growth in implanted tumors; assay type: in vivo, mice and rats; details: dose 30 mg/kg
[2] = test system: farnesylation of proteins; assay: Protein prenylation in myeloma Pai cells, naphthol cleavage and HPLC; assay type: cell-based, mouse; details: 60 μM, FIG. 8B
Experimental: (§1) The cells were collected by centrifugation at 600×g for 10 minutes and then washed twice in PBS. Control cells were grown in the absence of drug. The cells were solubilized in lysis buffer (50 mM Tris, pH 7.4, 25 mM EDTA, 0.05% Tween, 0.01 M NaCl) for 30 minutes on ice. Lysates were made by homogenization for 5 minutes at 4° C. and precipitated by centrifugation at 12,000×g for 10 minutes. The supernatant was collected. Proteins were precipitated with trichloroacetic acid and then successively washed with ethanol and ethyl ether. A selective naphthol cleavage of the bond between isoprenoides and proteins was performed as described by Epstein, W. W et al., (1991) Proc. Natl. Acad. Sci. USA 88:9668-9670. In general, 5 mg of a potassium naphthoxide and naphthol 4:1 mixture was added to approximately 10 mg of precipitated protein. After addition of 50 μl of dimethylformamide, the tubes were gassed with argon, capped and heated to 100° C. for eight to 15 hours. Reaction products were extracted with hexane and analyzed by HPLC (Waters System) using a 0.4×15 cm reverse-phase Nova-Pac C18 column. The column was eluted with 20% water in acetonitrile at a flow of 1.0 ml/minute. Napthol cleavage products were detected at 360 nm (FIG. 8) with a full-scale deflection of 0.01 A unit. […]

[3] = test system: geranylgeranylation; assay: as above; assay type: cell-based, mouse; details: 60 μM, FIG. 8B
Experimental: as §1

[4] = test system: immune system; assay: Immune system modulation in intact mice; assay type: in vivo
[5] = Toxicity and maximum tolerable doses of arglabin and derivatives; assay type: in vivo, rats, guinea pigs, mice, rabbits; details: 2% aqueous solution, blood serum and hepatic tissue
Description: Overall, the compounds in this family have low toxicity and are tolerated at dosages exceeding the therapeutic dosage.
Blood pressure was maintained.

[6] = in vivo
Experimental: Maximum tolerable doses (MTD) of arglabin and derivatives were determined by daily intraperitoneal administration to rats, guinea pigs or mice and daily intravenous administration to rabbits over a period of five to 20 days.

[7] = test system: Pliss lymphosarcoma; assay: Inhibition of tumor growth in implanted tumors; assay type: in vivo, rats; details: dose 30 mg/kg
[8] = test system: L-1210; assay: Implanted leukemia, survival; assay type: in vivo, mice and rats; details: dose 30 mg/kg
[9] = test system: Sarcoma-45; assay: Inhibition of tumor growth in implanted tumors; assay type: in vivo, rats
[10] = test system: drug resistant metastasis of Pliss' lymphosarcoma; assay: Model of drug resistant metastasis of Pliss' lymphosarcoma; assay type: in vivo, rats; details: alone
[11] = test system: Pliss Lymphosarcoma resistant to prospidine; assay: Inhibition of growth of resistant tumour strains; duration of life and metastasis; assay type: in vivo, rats
[12] = test system: immune system; assay: Immune system modulation in mice immunodepressed with cyclophosphamide; assay type: in vivo; details: 10 mg/kg for 10 days
Experimental: Mice were immunodepressed by administration of 200 mg/kg of cyclophosphamide. […] The Hemagglutination test and delayed-type hypersensitivity reaction were determined before and after administration of drug.
The increased number of T-lymphocytes was accompanied by an elevation in the T-helper subpopulation as well as the T-suppressor subpopulation, although to a lesser extent.

[13] = test system: Alveolar Cancer of the liver; assay: Inhibition of tumor growth in implanted tumors; assay type: in vivo, mice and rats; details: dose 50 mg/kg
[14] = test system: Sarcoma-45 resistant to sarcolysin; assay: Inhibition of growth of resistant tumour strains; assay type: in vivo, rats; details: dose 50 mg/kg
[15] = test system: Leucemia P-388; assay: Implanted leukemia, inhibition / survival; assay type: in vivo, mice and rats
[16] = test system: K-562 cells; assay: Viability of transformed cells, trypan blue exclusion; assay type: cell-based, human; details: 12 μg/ml, 18 hours
Experimental: Mouse mastocytoma (P-815), myeloma (Z-P3x63Ag8.653 and Pai) and human erthyroleukemia (K-562) cell lines were used. Primary cultures of normal mouse hepatocytes were isolated from mouse liver using collagenase. Mouse splenocytes were isolated using a glass homogenizer. Marrow cells were obtained by washing the bone marrow. See, for example, Shears, S. B. and Kirk, C. J. (1984), Biochem. J. 219:375-382.
Cells were cultured in RPMI-1640 medium supplemented with 10% fetal calf serum, 100 mM L-glutamine and 50 μg/ml gentamycin at 37° C. under 5% CO2. Cells were seeded into 24-well plates at a density of 50,000 cells/well and grown until near confluency, approximately 2 days, then transferred to 96-well plates at the same density. […] Viability of the cells was determined by trypan blue exclusion. […] Approximately 25% of K-562 and X-653 cells survived at a concentration of 12 μg/ml, and the same proportion of P-815 cells survived at a concentration of about 25 μg/ml.

Structure (SMILES): CC1=CCC23OC2(C)CCC2C(CN(C)C)C(=O)OC2C13.Cl (stereo not shown) [Dimethylaminoarglabin hydrochloride]
- Inhibition of Tumour Growth, % - M-1 Sarcoma [1]: 83.5** %
- peak corresponding to the farnesylcysteine derivative [2]: does not appear on the chromatogram
- geranylgeranyl peak [3]: appeared as in the control
- hemagglutination titer ([4]; 100 mg/kg IP): slight decrease
- hemagglutination test index ([4]; repeated IP 30 mg/kg, day 10): decreased
- hemagglutination titers ([4]; repeated IP 10 and 20 mg/kg, days 5 and 10): increased
- delayed-type hypersensitivity reaction ([4]; repeated IP, day 5): No effect
- delayed-type hypersensitivity reaction ([4]; repeated IP, day 10): increased by day 10
- delayed-type hypersensitivity reaction ([4]; single 50 mg/kg IP): did not alter
- hemagglutination titer ([4]; single 50 mg/kg IP): did not alter
- findings after prolonged daily intraperitoneal administration [5]: Reversible changes in glycolysis and tissue respiration
- maximum dosage (MTD) ([6]; guinea pig): 45 mg/kg
- maximum dosage (MTD) ([6]; mouse): 30 mg/kg
- maximum dosage (MTD) ([6]; rabbit): 20 mg/kg
- maximum dosage (MTD) ([6]; rat): 50 mg/kg
- Inhibition of Tumour Growth, % - Pliss lymphosarcoma [7]: 79.6%
- L-1210 - increase in survival [8]: +60%
- Inhibition of Tumour Growth, % - Sarcoma-45 ([9]; dose 30 mg/kg): 86.5*** %
- Inhibition of Tumour Growth, % - Sarcoma-45 ([9]; dose 50 mg/kg): 83.1** %
- duration of life in comparison with the control group [10]: 128%
- Inhibition of Tumour Strains Growth, % - Resistant Forms - Pliss Lymphosarcoma to prospidine ([11]; dose 30 mg/kg): 62.3%
- Inhibition of Tumour Strains Growth, % - Resistant Forms - Pliss Lymphosarcoma to prospidine ([11]; dose 50 mg/kg): 87.4*** %
- leukopenia and lymphopenia [12]: reduced the leukopenia and lymphopenia
- Inhibition of Tumour Growth, % - Alveolar Cancer of the liver [13]: 80.0%
- Inhibition of Tumour Strains Growth, % - Resistant Forms - Sarcoma-45 to sarcolysin [14]: 90.1*** %
- average time of retention (rat, in vivo): about 67 hours
- brain tissue concentration (rat, in vivo): 23.9 µg/g
- concentration in the liver (rat, in vivo): 228.6 µg/g
- maximum lung concentration (rat, in vivo): 149.4 µg/g
- maximum spleen concentration (rat, in vivo): 159 µg/g
- penetration through the blood-brain barrier (rat, in vivo): able to penetrate through the blood-brain barrier
- total clearance (rat, in vivo): 0.5 mL/min
- maximal level in the blood serum (rat, in vivo, iv, 2 mg/kg): 30 µg/mL
- time of maximal level in the blood serum (rat, in vivo, iv, 2 mg/kg): within one hour
- volume of distribution (rat, in vivo, iv, 2 mg/kg): large
- kidney concentration (rats, 24 hours): 56.6 µg/g
- concentration in skeletal muscle (rats, within three hours after administration): 176.4 µg/g
- Leucemia P-388 PALT - increase in survival ([15]; dose 30 mg/kg): +144%
- Leucemia P-388 PALT - increase in survival ([15]; dose 50 mg/kg): +109.0%
- cells survived [16]: Approximately 25%
